Data published in patent US20230165970A1, “COMPOSITIONS AND METHODS FOR THE TREATMENT OF BACTERIAL INFECTIONS” (priority 2017, published 2023).
In brackets after ≈: the same amount, converted by molar mass. Like-named read-outs stand apart in the source and are kept apart here. *1 amine or outer side, *2 acyl side, *3 side chain or, on linkers, in order; H or OH if unused. Where a SMILES comes first, the peptide text is derived from it. Bridges are numbered along the chain shown (N, C = ends). Roman numbers before positions name the chains, in order. [ ]: non-standard residue; d: D form. X6 = C#CCOCCOCCOCCOCCCN1C[C@@H](C(=O)[*:1])[C@H](C(=O)[*:2])C1; Nle = CCCC[C@H](N)C(=O)O; Dab = NCC[C@H](N)C(=O)O; azaGly = NNC(=O)O

Assays:
[1] = tested on: Ab 19606 (COLhet^R); format: cell-based, Acinetobacter baumannii; settings: media CA-MHB
[2] = tested on: Sa RN; format: cell-based
[3] = tested on: Ab AB5075; format: cell-based, Acinetobacter baumannii
Summary of the method: (§1)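 Compounds were serially diluted 2-fold (8 or 12 points) against inocula from MHA cultures, set to ~0.1 OD600 in 0.85% saline. Conjugates were tested in RPMI B. Plates were incubated at 35 °C for 16-20 h, and Pa LES431 was also run with and without 50% heat-inactivated FBS.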

[4] = tested on: Ab 8990 (COL^R); format: cell-based, Acinetobacter baumannii
Summary of the method: as §1

[5] = tested on: E. coli 25922; settings: 3.0 mg/kg IP qd at T+1 hour; 72 hours after bacterial challenge; N=3
Protocol: In vivo screening of selected compounds was accomplished in an E. coli bacteremia model (N=3). Efficacy was assessed in an animal model of infection using CD-1 mice by evaluating bacteremia in immune competent mice challenged with 2× the LD95 of E. coli 25922 (dosed qd, intraperitoneally (IP) at T+1 hour, survival endpoint).
Colistin (COL) and Int-17 were dosed at 0.3 mg/kg and Int-41 was dosed at 3.0 mg/kg. Percent survival was determined 72 hours after bacterial challenge. Compounds with MICs against E. coli 25922 of less than 4 μg/ml were evaluated in the bacteremia model.
Int-115 and Int-118 were evaluated for potency in a lethal model of bacteremia. […] Test articles were dissolved in 1× PBS and injected IV at a dose volume of 10 ml/kg one hour following bacterial challenge. Animals were monitored twice daily and mortality scored over three days.
CD-1 mice were used for bacteremia, C57BL/6J mice for endotoxemia. The endpoint was survival after three days for both models.

[6] = tested on: Kp 43816; format: cell-based, Klebsiella pneumoniae
Summary of the method: as §1

[7] = tested on: Kp 6951 (COL^R); format: cell-based, Klebsiella pneumoniae
Summary of the method: as §1

[8] = tested on: Kp 10031; format: cell-based, Klebsiella pneumoniae
Summary of the method: as §1

[9] = tested on: Ec 2469; format: cell-based, Escherichia coli
Summary of the method: as §1

[10] = tested on: Ec 25922; format: cell-based, Escherichia coli
Summary of the method: as §1

[11] = tested on: Pa LES431; format: cell-based, Pseudomonas aeruginosa
Summary of the method: as §1

[12] = tested on: Pa 27853; format: cell-based, Pseudomonas aeruginosa
Summary of the method: as §1

[13] = tested on: Pa PAO1; format: cell-based, Pseudomonas aeruginosa
Summary of the method: as §1

[14] = tested on: Ec 25922 64X-1 (COL^R); format: cell-based, Escherichia coli; settings: media CA-MHB
[15] = tested on: Ec AR0349 (mcr-1, COL^R); format: cell-based, Escherichia coli; settings: media CA-MHB
[16] = tested on: Ec COL^R LPS: colistin-resistant (MCR-1) strain (AR0349); assay: Lethal mouse endotoxemia model (LD95 purified LPS IP); format: in vivo, C57BL/6J mice; settings: (D) Endotoxemia (Ec COL^R LPS); 5 mg/kg IV, single, -1 hr; survival after three days
Protocol: Studies (B)-(D) shown in Table 22 summarizes the efficacy of compounds in lethal models of endotoxemia. In these models 6 week old C57I/6J immune competent mice (Jackson Laboratory) were challenged IP with purified lipopolysaccharide (LPS) in PBS at an LD95. For all studies, LPS was obtained from Sigma (catalog numbers in the table footnote) or were purified using a kit obtained from iNtRON Biotechnology Inc. (cat #17141). One hour prior to LPS challenge mice were dosed with test articles as indicated (Table 22). The results of these studies indicate that compounds are able to neutralize the lethal effects of LPS in a severe endotoxemia/sepsis model.
End point was survival after 3 days. Ec: E. coli 0111:B34, Sigma cat #L4130; Ab: Acinetobacter baumannii 5075; Kp: Klebsiella pneumonia 10, Sigma cat #L4268; Ng: Neisseria gonorrhoeae 19424; Ec 026:B86, Sigma cat #L2762; Pm: Proteus mirabilis, Sigma cat #SMB00704; Sm: Serratia marcescens, Sigma cat #L6016; Pa: Pseudomonas aeruginosa 10. […] Purified LPS used for all endotoxemia studies and if not denoted by a Sigma catalog number the LPS was purified in-house using an iNtRON #17141 purification kit. *Delayed death, at the time Fc only animals reached 100% mortality all Conjugate 41 mice were still alive.

[17] = tested on: Ab AB58705 (COL^R) IpxD, mut. (no LPS); format: cell-based, Acinetobacter baumannii; settings: media CA-MHB
[18] = tested on: A. baumannii AB5075; assay: A. baumannii lung infection model, lung CFU burden (C57Bl/6J mice); format: in vivo, Acinetobacter baumannii; settings: 24 h time point; conjugates 50 mpk IP at t=−12 h and t=+1 h; AZM 25 mpk SC once at t=+1 h; n=5
Protocol: A. baumannii AB5075 was grown to log-phase in LB at 37° C., 200 rpm shaking. Bacteria were washed once with PBS via centrifugation at 4,000 rpm. Bacteria were adjusted to desired concentration in PBS.
Prior to infection, 8-week-old female C57BI/6J mice (Jackson Labs) were anesthetized with 100 mg/kg ketamine and 10 mg/kg xylazine. Using an otoscope, mice were infected directly into the trachea. For CFU burden studies mice were infected with 2×10^7 CFU in 30 μL PBS. At 24 h post-infection mice were sacrificed by CO2 and both lung lobes were harvested. Lungs were homogenized with 1 mm silica beads in 1 mL PBS using a MagNA Lyser (Roche). Homogenization was carried out at 6,000 rpm for 60 s and chilled on ice for 60 s in-between runs. Lung homogenate was diluted in PBS ranging from 10^−1 to 10^−8, plated on LB plates and incubated at 37° C. overnight. The next day. CFU were enumerated and surviving CFU calculated relative to weight of the lung. […] Conjugates or hIgG1 (50 mpk) were administered intraperitoneally at t=−12 h pre-infection and t=+1 h post-infection. Azithromycin (Fresenius-Kabi) was administered subcutaneously once at t=+1 h post-infection. Efficacy of ADC conjugates (50 mpk) was determined upon intratracheal infection of A. baumannii AB5075. For CFU burden studies, mice (n=5 per group) were infected with 3×10^7 bacteria, sacrificed and lung CFU burden determined at 24 h time point.

C#CCOCCOCCOCCOCCCNC(=O)CN(CC(=O)N[C@@H](CCCC)C(=O)N[C@@H](CCN)C(=O)N[C@H](C(=O)N[C@@H](CCN)C(=O)N[C@H]1CCNC(=O)[C@H]([C@@H](C)O)NC(=O)[C@H](CCN)NC(=O)[C@H](CCN)NC(=O)[C@H](CC(C)C)NC(=O)[C@@H](Cc2ccccc2)NC(=O)[C@H](CCN)NC1=O)[C@H](O)CCC)C(=C)N[C@@H](CCCC)C(=O)N[C@@H](CCN)C(=O)N[C@H](C(=O)N[C@@H](CCN)C(=O)N[C@H]1CCNC(=O)[C@H]([C@@H](C)O)NC(=O)[C@H](CCN)NC(=O)[C@H](CCN)NC(=O)[C@H](CC(C)C)NC(=O)[C@@H](Cc2ccccc2)NO[C@H](CCN)NC1=O)[C@H](O)CCC [Int-41]
MIC [1]: 4 µg/mL (≈ 1.45 µM)
MIC [2]: >128 µg/mL
MIC [3]: 4 µg/mL (≈ 1.45 µM)
MIC [4]: 128 µg/mL (≈ 46.3 µM)
% Survival (IP, QD) [5]: 67%
MIC [6]: 4 µg/mL (≈ 1.45 µM)
MIC [7]: 16 µg/mL (≈ 5.79 µM)
MIC [8]: 4 µg/mL (≈ 1.45 µM)
MIC [9]: 2 µg/mL (≈ 0.724 µM)
MIC [10]: 4 µg/mL (≈ 1.45 µM)
MIC E. coli ATCC 25922, No serum [10]: 4 µg/mL (≈ 1.45 µM)
MIC E. coli ATCC 25922, Serum [10]: 1 µg/mL (≈ 0.362 µM)
MIC [11]: 2 µg/mL (≈ 0.724 µM)
MIC [12]: 2 µg/mL (≈ 0.724 µM)
MIC ([13]; PAO1): 2 µg/mL (≈ 0.724 µM)
MIC [14]: 4 µg/mL (≈ 1.45 µM)
MIC [15]: 4 µg/mL (≈ 1.45 µM)

C#CCOCCOCCOCCOCCCN1C[C@@H](C(=O)N[C@@H](CCCC)C(=O)N[C@@H](CCN)C(=O)N[C@H](C(=O)NNC(=O)N[C@H]2CCNC(=O)[C@H]([C@@H](C)O)NC(=O)[C@H](CCN)NC(=O)[C@H](CCN)NC(=O)[C@H](CC(C)C)NC(=O)[C@@H](Cc3ccccc3)NC(=O)[C@H](CCN)NC2=O)[C@@H](C)O)[C@H](C(=O)N[C@@H](CCCC)C(=O)N[C@@H](CCN)C(=O)N[C@H](C(=O)NNC(=O)N[C@H]2CCNC(=O)[C@H]([C@@H](C)O)NC(=O)[C@H](CCN)NC(=O)[C@H](CCN)NC(=O)[C@H](CC(C)C)NC(=O)[C@@H](Cc3ccccc3)NC(=O)[C@H](CCN)NC2=O)[C@@H](C)O)C1 [Int-122] (I: [Nle][Dab]T[azaGly][Dab][Dab][dF]L[Dab][Dab]T / II: [Nle][Dab]T[azaGly][Dab][Dab][dF]L[Dab][Dab]T; lactam I:5-I:C, II:5-II:C; linker I:N-II:N via X6)
MIC [1]: 2 µg/mL (≈ 0.763 µM)
MIC [2]: >128 µg/mL
MIC ([3]; Ab AB5075, media CA-MHB): 2 µg/mL (≈ 0.763 µM)
MIC ([4]; Ab 8990 (COL^R), media CA-MHB): >128 µg/mL
MIC ([6]; Kp 43816, media CA-MHB): 2 µg/mL (≈ 0.763 µM)
MIC ([7]; Kp 6951 (COL^R), media CA-MHB): 8 µg/mL (≈ 3.05 µM)
MIC ([8]; Kp 10031, media CA-MHB): 2 µg/mL (≈ 0.763 µM)
% survival [16]: 80%
MIC ([9]; Ec 2469, media CA-MHB): 2 µg/mL (≈ 0.763 µM)
MIC ([10]; Ec 25922 + FBS (50%, heat-inactivated), media CA-MHB): 0.25 µg/mL
MIC ([10]; Ec 25922, media CA-MHB): 2 µg/mL (≈ 0.763 µM)
MIC ([11]; Pa LES431 + FBS (50%, heat-inactivated), media CA-MHB): 8 µg/mL
MIC ([11]; Pa LES431, media CA-MHB): 2 µg/mL (≈ 0.763 µM)
MIC ([12]; Pa 27853, media CA-MHB): 4 µg/mL (≈ 1.53 µM)
MIC ([13]; Pa PAO1, media CA-MHB): 4 µg/mL (≈ 1.53 µM)
MIC [17]: 2 µg/mL (≈ 0.763 µM)
MIC [14]: 2 µg/mL (≈ 0.763 µM)
MIC [15]: 2 µg/mL (≈ 0.763 µM)

CC[C@H]1OC(=O)[C@H](C)[C@@H](O[C@H]2C[C@@](C)(OC)[C@@H](O)[C@H](C)O2)[C@H](C)[C@@H](O[C@@H]2O[C@H](C)C[C@H](N(C)C)[C@H]2O)[C@](C)(O)C[C@@H](C)CN(C)[C@H](C)[C@@H](O)[C@]1(C)O [azithromycin (AZM), azithromycin, reference compound]
reduction of lung CFU burden [18]: 0.76 logs
